Source: paper PMC11305387, “AlphaFold accelerated discovery of psychotropic agonists targeting the trace amine–associated receptor 1” (Science Advances, 2024)
In brackets after ≈: the same amount, converted by molar mass.

How the values were obtained:
Thermodynamic solubility = type: physicochemical; conditions: 100 mM potassium phosphate buffer, aqueous buffer, thermodynamic from solid, 100 mM KPO4-buffer pH 7.4, 37°C
Method: Thermodynamic solubility assay used solid form of compound 65. Solid test compound (~2 to 3 mg) was weighed in a glass high-performance liquid chromatography (HPLC) vial, and 100 mM KPO4-buffer (pH 7.4) was added to give a theoretical max concentration if everything is dissolved of ~5 to 6 mg/ml. The vial was incubated at 900 rpm and 37°C in a rotational shaker for 24 hours. After the incubation, an aliquot (200 μl) was transferred to a glass insert and centrifuged at 10,000g and 37°C for 20 min to separate any solid material from the solution. The supernatant was transferred to a new HPLC vial and analyzed by LC-MS/MS.

[1] = Metabolic stability in liver microsomes; conditions: mouse liver microsomes, 1 μM
WT and TAAR1-KO mice = test: Accelerating rotarod test; type: in vivo; conditions: 1 mg/kg i.p., 30 min after injection
Method: To test compound 65 for sedative effects, mice were subjected to the accelerating rotarod test as previously described ([77]), with minor modifications. Mice were acclimatized to the rotarod (Ugo Basile, Gemonio, Italy) for 2 days before testing, starting at 4 rotations per minute (RPM) and accelerating to 40 RPM over 300 s. A baseline measure of performance, defined as the latency to fall from the rotarod with a cutoff time of 300 s, was taken before injection with either compound 65 (1 mg/kg), xylazine (5 mg/kg), or vehicle intraperitoneally. The mice were then retested 30 min after injection.

5-HT1A receptor = target: T1, 5-HT1A receptor (Homo sapiens, UniProt P08908); test: PRESTO-TANGO β-arrestin recruitment; type: cell-based; conditions: panel screen
T1 construct: TANGO fusion module (own knowledge, Kroeze et al.: C-terminal V2 tail, TEV site and tTA); 1000000068; host or cells: HTLA (HEK293-derived)
T1 sequence (P08908 1-422): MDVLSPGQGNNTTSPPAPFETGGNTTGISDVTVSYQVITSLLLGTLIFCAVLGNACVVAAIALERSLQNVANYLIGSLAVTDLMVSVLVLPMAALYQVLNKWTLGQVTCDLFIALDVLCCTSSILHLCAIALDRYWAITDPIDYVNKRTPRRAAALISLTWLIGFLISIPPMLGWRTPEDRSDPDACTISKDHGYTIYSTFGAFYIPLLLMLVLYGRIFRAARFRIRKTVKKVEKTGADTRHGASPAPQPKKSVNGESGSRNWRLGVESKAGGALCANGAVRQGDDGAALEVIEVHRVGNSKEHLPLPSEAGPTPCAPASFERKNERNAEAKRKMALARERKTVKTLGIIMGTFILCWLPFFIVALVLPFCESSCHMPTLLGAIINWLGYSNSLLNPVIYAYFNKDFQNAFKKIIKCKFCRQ
Method: Assessment of receptor activation by compounds at all human aminergic receptors were carried out using a modified version of the PRESTO-TANGO method. […] The plate was spun down, and 5 μl of a 1:25 dilution (in DPBS) of polyethylenimine (PEI) derivative (Transporter 5, Polysciences) was added (1:4 cDNA to PEI ratio) and incubated for 20 min at room temperature (RT). […] Luminescence signal was detected using a plate-reader (SPARK, Tecan) with 100-ms integration time and a 100-ms delay between well reads.

[2] = Plasma protein binding (rapid equilibrium dialysis); type: in vitro ADME; conditions: pH 7.4
Method: Pooled human plasma was provided by Uppsala Academic Hospital and was collected from two donors (nonsmoking) (citric acid). In brief, 0.2 ml of the plasma (50% plasma and 50% isotonic buffer) test solution (typically, 10 μM final compound concentration) was transferred to the membrane tube in the rapid equilibrium dialysis (RED) insert (Thermo Fisher Scientific). Isotonic phosphate buffer (0.35 ml; pH 7.4) was added to the other side of the membrane. The 96-well base plate was then sealed with an adhesive plastic film (Scotch Pad) to prevent evaporation. The sample was incubated with rapid rotation (>900 rpm) on a Kisker rotational incubator at 37°C for 4 hours to achieve equilibrium. A stability test of the test solution was prepared (to allow detection of drug degradation), and 100 μl of the plasma test solution (in a plastic vial or on a sealed plate) was incubated at 37°C for 4 hours (or as long as the dialysis time). The plasma test solution was frozen directly after the administration to prevent any degradation. Before LC-MS/MS analysis, the plasma and buffer samples were treated with the addition of methanol (1:3) containing Warfarin as internal standard to precipitate proteins. The standard curve was created using the plasma standard. The plate was then sealed and centrifuged, and the supernatant was analyzed by LC-MS/MS ([78]).

[3] = Metabolic stability in liver microsomes; conditions: human liver microsomes, 1 μM
hTAAR1 = target: T2, hTAAR1 (Homo sapiens, UniProt Q96RJ0); test: G protein (mini-Gs) recruitment luminescence complementation assay, agonist mode; type: cell-based
T2 construct: expressed in transfected cells; host or cells: Expi293F
T2 sequence (Q96RJ0 1-339): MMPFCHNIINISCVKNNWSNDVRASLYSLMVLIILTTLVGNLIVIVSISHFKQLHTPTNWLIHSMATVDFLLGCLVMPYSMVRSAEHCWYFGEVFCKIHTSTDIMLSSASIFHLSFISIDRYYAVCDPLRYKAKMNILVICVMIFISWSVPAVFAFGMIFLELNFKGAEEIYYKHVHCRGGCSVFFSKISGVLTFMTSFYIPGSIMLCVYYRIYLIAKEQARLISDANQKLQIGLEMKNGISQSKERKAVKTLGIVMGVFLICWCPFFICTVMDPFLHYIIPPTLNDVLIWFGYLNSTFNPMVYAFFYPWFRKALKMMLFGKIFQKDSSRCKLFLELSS
Method: The 62 predicted ligands were purchased from commercial vendors and tested for activity at a concentration of 20 μM in a luminescence complementation–based assay measuring recruitment of mini-Gs to the human TAAR1 ([38]).
To monitor TAAR1 activation by compounds, we used our previously described system. […] Cells were then reseeded in solid white, 96-well plates (Corning) with 90 μl of cell suspension per well. Luminescence was read using a plate reader for 5 min (SPARK 10 M, Tecan) before the addition of compounds to ensure signal stability. Ten microliters of each compound diluted in DPBS was added, and luminescence from each well was read for 10 min, with 100-ms read time per well. The A2AR counter-screen was performed using the same protocol. In these experiments, the hTAAR1 was replaced by a C-terminally SmBiT-tagged hA2AR construct.

[4] = test system: TAAR1-WT and TAAR1-KO mice; test: Core-body temperature (CBT) measurement; type: in vivo
Method: Core temperature was determined by a rectal thermoprobe. Compounds or vehicle was administered intraperitoneally. A basal measurement was performed immediately before injection. Measurements were repeated every 30 min for 2 hours. Mean changes in CBT were calculated by subtracting the value from vehicle treated group at the corresponding time point. A washout of 1 week between different doses of compound 65 was applied, and mice were injected starting with the lowest dose first.

## CC1=C(c2ccco2)CNCC1 [Compound 65]
Thermodynamic solubility
  solubility at 24 h: 50 mM (≈ 8160 µg/mL)
[1]
  intrinsic clearance CLint: 7 μl/min per mg
WT and TAAR1-KO mice
  effect on rotarod performance (sedation): did not influence rotarod performance
5-HT1A receptor
  activation of 5-HT1A receptor: did not observe a considerable activation
[2]; human, pooled human plasma (50% plasma and 50% isotonic buffer)
  fraction unbound at 4 h, 10 μM: 0.61
[2]; mouse, mouse plasma (50% plasma and 50% isotonic buffer)
  fraction unbound at 4 h, 10 μM: 0.81
[3]
  intrinsic clearance CLint: 16 μl/min per mg
hTAAR1; TAAR1, G protein recruitment assay, read-out: pEC50 (converted)
  EC50: 0.0251 µM
hTAAR1; TAAR1 G protein recruitment
  fold more potent than Ulotaront: > 25 fold
[4]; TAAR1-KO mice
  effect on CBT: no decrease in CBT was observed
[4]; TAAR1-WT mice
  maximal reduction of CBT, 5 mg/kg versus 1 mg/kg: did not observe a significant increase in the maximal reduction of CBT
[4]; TAAR1-WT mice, 0.5 and 1 mg/kg
  time of peak CBT reduction after injection: 30 min
  time to return of CBT to baseline: 2 h
[4]; TAAR1-WT mice, 0.5 and 1 mg/kg i.p.
  effect on CBT: reduction of CBT
[4]; WT mice, 1 mg/kg, 30 and 60 min after injection
  extent of CBT reduction: ~ 1 °C
